Assay [1] concerns T. brucei. The assay is described as follows: T. brucei growth inhibition. Format: cell-based, Trypanosoma brucei. To be noted: read-out: (D) T. brucei EC50.
For assay [2], the target named is MetRS (C. parvum) (Cryptosporidium parvum, UniProt Q5CVN0). The assay is described as follows: MetRS (C. parvum) enzyme inhibition. Particulars: read-out: (C) MetRS (C. parvum) IC50. Format: biochemical.
Assay [3] concerns T. cruzi. The assay is described as follows: T. cruzi growth inhibition. Particulars: read-out: (E) T. cruzi EC50. In kind it is cell-based, Trypanosoma cruzi.
Assay [4] has as its system E. faecium VRE (ATCC 51559). Description: MIC susceptibility testing. Format: cell-based, Enterococcus faecium. To be noted: Enterococcus faecium, E. faecium ATCC 51559; read-out: (I) E. faecium (ATCC 51559) MIC. Summed up:
(§1)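 CLSI broth microdilution in triplicate, 5×10^5 CFU/mL final, ≤0.5% DMSO; MHB for S. aureus, CA-MHB for E. coli and E. faecium, CA-MHB plus 3% laked horse blood for S. pyogenes (5% CO2).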

Assay [5] addresses recombinant S. aureus MetRS enzyme (Staphylococcus aureus, UniProt A0A0H2XID2). Description: Inhibition of SaMetRS, ATP depletion assay. Format: biochemical. Particulars: read-out: (B) MetRS (S. aureus) IC50. The method, then: Production of recombinant S. aureus MetRSs. The SaMetRS gene (UniProtKB—A0A0H2XID2) was PCR amplified (Sense 5′-[…]-3′ (SEQ ID NO: 1) and Antisense 5′-[…]-3′ (SEQ ID NO:2)) from genomic DNA isolated from S. aureus (ATCC 29213) cultures. The PCR product was then cloned into the AVA0421 plasmid and sequence verified. The expression of recombinant protein was performed as previously described. The N-terminal 6-His fusion proteins were purified by nickel affinity chromatography followed by size exclusion gel chromatography (Superdex 75 26/60; GE Biosciences, Piscataway, N.J.).
Enzyme assays. Inhibition of SaMetRS was measured using the ATP depletion assay as previously described with some modifications. Compounds were pre-incubated for 15 minutes at room temperature in a 96-well plate with 400 μg/mL bulk E. coli tRNA, 25 nM SaMetRS, 0.1 U/mL pyrophosphatase, 0.2 mM spermine, 0.1 mg/mL bovine serum albumin, 2.5 mM dithiothreitol, 25 mM HEPES-KOH pH 7.9, 10 mM MgCl2, 50 mM KCl, and 2% DMSO. Reagents were purchased from Sigma-Aldrich or Roche. The reaction was started with the addition of 150 nM ATP and 20 μM L-methionine and after 120 minute incubation was stopped by the addition of an equal volume (50 μL) of Kinase-Glo® (Promega). Percent inhibition=100×(test compound−AVG low control)/(AVG high control−AVG low control) where the low control is all reagents except the compound and the high control is all reagents except the compounds and L-methionine. IC50 values were calculated by non-linear regression, sigmoidal-dose response, in Prism 3.0.

Assay [6] relates to S. aureus MSSA (ATCC 29213). The assay is described as follows: MIC susceptibility testing. To be noted: Staphylococcus aureus, S. aureus ATCC 29213, read-out: (F) S. aureus (ATCC 29213) MIC. In kind it is cell-based, Staphylococcus aureus.
Assay [7] deals with S. aureus MRSA (ATCC 33591). Description: MIC susceptibility testing. In kind it is cell-based, Staphylococcus aureus. To be noted: MRSA ATCC33591; for MIC: Staphylococcus aureus, read-out: (G) MRSA (ATCC33591) MIC. Summed up:
as §1

Assay [8] concerns the target T1, MetRS (T. brucei) (Trypanosoma brucei brucei, UniProt Q38C91).
T1 sequence (Q38C91 1-773): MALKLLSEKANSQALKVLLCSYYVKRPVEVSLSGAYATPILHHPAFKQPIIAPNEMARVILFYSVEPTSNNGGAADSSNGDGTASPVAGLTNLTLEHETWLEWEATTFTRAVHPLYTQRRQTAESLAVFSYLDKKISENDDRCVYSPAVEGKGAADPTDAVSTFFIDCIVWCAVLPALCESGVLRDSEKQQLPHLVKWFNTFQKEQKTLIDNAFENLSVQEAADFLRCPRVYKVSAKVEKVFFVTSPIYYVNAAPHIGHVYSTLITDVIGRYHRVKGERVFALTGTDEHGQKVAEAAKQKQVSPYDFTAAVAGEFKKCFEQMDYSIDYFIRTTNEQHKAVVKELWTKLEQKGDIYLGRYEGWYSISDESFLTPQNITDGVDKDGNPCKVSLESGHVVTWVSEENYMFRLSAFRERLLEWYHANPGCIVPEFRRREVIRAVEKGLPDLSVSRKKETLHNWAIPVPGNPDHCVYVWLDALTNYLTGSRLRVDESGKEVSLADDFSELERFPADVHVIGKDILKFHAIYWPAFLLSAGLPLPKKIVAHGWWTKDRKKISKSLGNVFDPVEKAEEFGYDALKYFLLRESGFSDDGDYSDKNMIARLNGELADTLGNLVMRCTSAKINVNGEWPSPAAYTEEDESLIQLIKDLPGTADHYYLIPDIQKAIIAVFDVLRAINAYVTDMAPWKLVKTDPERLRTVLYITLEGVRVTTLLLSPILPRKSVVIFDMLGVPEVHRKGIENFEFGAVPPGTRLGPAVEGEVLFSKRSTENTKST
Description: MetRS (T. brucei) enzyme inhibition. In kind it is biochemical.

Assay [9] relates to C. parvum. Description: C. parvum growth inhibition. Format: cell-based, Cryptosporidium parvum. To be noted: Cryptosporidium parvum; read-out: (J) C. parvum EC50.
In assay [10] the test system is S. pyogenes (ATCC 19615). Description: MIC susceptibility testing. Format: cell-based. To be noted: Streptococcus pyogenes, ATCC19615, S. pyogenes ATCC 19615; read-out: (H) S. pyogenes (ATCC 19615) MIC. From the text:
Media and culture conditions. Mueller Hinton broth (MHB), cation adjusted Mueller Hinton broth (CA-MHB), and Brain Heart Infusion broth (BHI) were purchased from Becton Dickinson (Franklin Lakes, N.J.). Tryptic soy agar (TSA) plates, TSA with 5% sheep blood plates, and CA-MHB with 3% laked horse blood were purchased from Remel (San Diego, Calif.). MHB was used to assay all Staphylococcus aureus strains. CA-MHB was used for Staphylococcus epidermidis, Enterococcus faecalis, Enterococcus faecium, Escherichia coli, and Pseudomonas aeruginosa. CA-MHB supplemented with 3% laked horse blood was used for Streptococcus pneumoniae and Streptococcus pyogenes. Staphylococcus, Enterococcus, Escherichia, and Pseudomonas strains were cultured at 37° C. with ambient air. Streptococcus strains were cultured in 37° C. with 5% CO2. Separate conditions for radiolabeled precursor uptake assays are described below.
Susceptibility testing: Minimum inhibitory concentration (MIC) determinations were performed in triplicate in 96-well round bottom microtiter plates (Corning, Corning N.Y.) as described by the Clinical and Laboratory Standards Institute (CLSI). Serial two-fold dilutions of compounds were added to plates in 50 μL volumes. An additional 50 μL of media containing bacterial cells (1×10^6 CFUs/mL) was then added to each well. Maximum DMSO concentrations were 0.5%. Plates were incubated at 37° C. for at least 18 h before reading the susceptibility result by optical absorbance (OD600) using a BioTek ELx800. The lowest concentration causing ≥90% growth inhibition compared to the untreated control was recorded as the MIC (and also corresponded to the visual MIC). MICs were measured at least twice and the higher value (if different) was recorded herein.

Molecules are shown by their SMILES. In brackets after ≈: the same amount, converted by molar mass. Several values for one entry are separate records, joined by “and”; a condition that tells them apart may be missing. Equal values may be shown once. Read-outs that look alike come from different tables or passages of the source.

MetRS (C. parvum), sequence (Q5CVN0 entry or part of it): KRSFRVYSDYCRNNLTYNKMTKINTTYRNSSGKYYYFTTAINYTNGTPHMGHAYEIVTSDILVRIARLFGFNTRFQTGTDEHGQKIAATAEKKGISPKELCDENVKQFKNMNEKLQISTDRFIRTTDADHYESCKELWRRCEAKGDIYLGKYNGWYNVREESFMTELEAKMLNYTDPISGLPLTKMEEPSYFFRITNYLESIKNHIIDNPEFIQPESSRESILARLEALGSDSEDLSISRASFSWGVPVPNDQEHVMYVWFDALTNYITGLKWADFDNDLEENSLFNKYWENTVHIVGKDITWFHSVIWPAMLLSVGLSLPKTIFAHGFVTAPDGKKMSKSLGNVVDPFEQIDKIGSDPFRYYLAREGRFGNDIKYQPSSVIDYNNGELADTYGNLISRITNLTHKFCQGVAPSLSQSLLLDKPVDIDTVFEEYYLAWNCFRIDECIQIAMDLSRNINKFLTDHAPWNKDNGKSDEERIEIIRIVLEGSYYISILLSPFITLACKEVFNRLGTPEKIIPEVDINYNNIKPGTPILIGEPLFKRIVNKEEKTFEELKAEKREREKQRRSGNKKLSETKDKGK
recombinant S. aureus MetRS enzyme, sequence (A0A0H2XID2 2-657): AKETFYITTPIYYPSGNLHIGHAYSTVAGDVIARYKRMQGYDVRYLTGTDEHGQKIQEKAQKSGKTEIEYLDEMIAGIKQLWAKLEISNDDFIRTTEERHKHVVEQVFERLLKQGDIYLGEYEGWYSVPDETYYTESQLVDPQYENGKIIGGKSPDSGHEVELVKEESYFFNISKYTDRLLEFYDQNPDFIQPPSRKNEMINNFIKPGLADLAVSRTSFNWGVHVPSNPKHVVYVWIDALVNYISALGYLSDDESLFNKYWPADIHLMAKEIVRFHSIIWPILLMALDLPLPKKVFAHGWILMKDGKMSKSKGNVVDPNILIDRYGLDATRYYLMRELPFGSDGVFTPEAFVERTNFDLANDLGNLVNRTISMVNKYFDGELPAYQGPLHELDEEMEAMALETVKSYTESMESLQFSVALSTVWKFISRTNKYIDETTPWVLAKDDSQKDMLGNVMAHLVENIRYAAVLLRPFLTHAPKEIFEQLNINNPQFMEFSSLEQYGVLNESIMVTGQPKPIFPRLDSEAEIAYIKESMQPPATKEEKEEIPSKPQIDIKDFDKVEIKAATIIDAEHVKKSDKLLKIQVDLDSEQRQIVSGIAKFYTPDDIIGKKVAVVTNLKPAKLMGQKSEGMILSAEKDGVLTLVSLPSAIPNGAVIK

In general, EC50 refers to the concentration at which the effect is half-maximal. As usually defined, the IC50 is the concentration at which inhibition is half-maximal. For orientation: MIC means the smallest concentration in the dilution series that meets the test's criterion for growth inhibition. With `O=c1n(Cc2nc3ccc(Cl)nc3[nH]2)cc(Cc2ccc(Cl)cc2Cl)n1CC(F)F` [Compound 2138, 1-({5-chloro-1H-imidazo[4,5-b]pyridin-2-yl}methyl)-4-[(2,4-dichlorophenyl)-methyl]-3-(2,2-difluoroethyl)-2,3-dihydro-1H-imidazol-2-one], the EC50 in assay [1] (Trypanosoma brucei) worked out at 2.46 nM; in assay [1] it was 3.48 nM; in [3] (Trypanosoma cruzi), 26.7 nM; in assay [3] it was 53.1 nM. Also, the IC50 in assay [2] is less than 40 nM; in assay [5], less than 25 nM; in assay [8], less than 40 nM. The MIC in assay [4] worked out at 0.596 µg/mL (≈ 1.26 µM); in assay [6] it was 0.062 µg/mL (≈ 0.131 µM); in [7] it was 0.553 µg/mL (≈ 1.17 µM).

In the case of `COc1cc(-c2cccc3nc(Cc4nc5nc(Br)ccc5[nH]4)cn23)c(Cl)cc1Cl` [Compound 2146, 2-({5-bromo-1H-imidazo[4,5-b]pyridin-2-yl}methyl)-5-(2,4-dichloro-5-methoxyphenyl)imidazo[1,2-a]pyridine], the results for the IC50 in assay [2], in [5] and in assay [8] were 92.4 nM, less than 25 nM and less than 40 nM, respectively. In addition, the EC50 turned out to be 19.5 nM in assay [3] (Trypanosoma cruzi), 29.7 nM in assay [3] and 1990 nM in assay [9]. Further, the MIC is 0.141 µg/mL (≈ 0.28 µM) in assay [4] and 0.127 µg/mL (≈ 0.252 µM) in assay [7]. The “(G) MRSA (ATCC33591) MIC” value in [7] was 0.165, μg/mL and 0.179 μg/mL.

For `COc1ccc(-c2ccc(NS(C)(=O)=O)c3nc(Cc4nc5nc(Cl)ccc5[nH]4)cn23)c(Cl)c1` [Compound 2174, N-[2-({5-chloro-1H-imidazo[4,5-b]pyridin-2-yl}methyl)-5-(2-chloro-4-methoxyphenyl)imidazo[1,2-a]pyridin-8-yl]methanesulfonamide], the IC50 in assay [2] is less than 40 nM; in assay [5], less than 25 nM; in assay [8], less than 40 nM. Moreover, the figures for the EC50 in assay [3] (Trypanosoma cruzi) and in [9] were 195 nM and 1190 nM, respectively. Further, the MIC in assay [4] was found to be 0.318 µg/mL (≈ 0.615 µM); in assay [6], 0.158 µg/mL (≈ 0.305 µM); in [7] it was 0.319 µg/mL (≈ 0.617 µM).

In the case of `COc1ccc(-c2ccc(NC(C)=O)c3nc(Cc4nc5nc(Br)ccc5[nH]4)cn23)c(Cl)c1` [Compound 2184, N-[2-({5-bromo-1H-imidazo[4,5-b]pyridin-2-yl}methyl)-5-(2-chloro-4-methoxyphenyl)imidazo[1,2-a]pyridin-8-yl]acetamide], the values for the IC50 in [2], in [5] and in assay [8] were less than 40 nM, less than 25 nM and less than 40 nM, respectively. In addition, the values for the EC50 in [3] (Trypanosoma cruzi), in [3] and in assay [9] were 29.3 nM, 23.1 nM and 719 nM, respectively. Further, the MIC stood at 0.286 µg/mL (≈ 0.544 µM) in [4], 0.201 µg/mL (≈ 0.382 µM) in assay [6] and 0.435 µg/mL (≈ 0.827 µM) in assay [7].

Regarding `CC(C)NCC(O)Cn1c(Cc2ccc(Cl)cc2Cl)cn(Cc2nc3cc(F)c(F)cc3[nH]2)c1=O` (centres unmarked) [Compound 2293, 4-[(2,4-dichlorophenyl)methyl]-1-[(5,6-difluoro-1H-1,3-benzodiazol-2-yl)methyl]-3-{2-hydroxy-3-[(propan-2-yl)amino]propyl}-2,3-dihydro-1H-imidazol-2-one], the EC50 in [1] (Trypanosoma brucei) came out at 831 nM. In addition, the MIC in assay [10] and in assay [6] was greater than 8 µg/mL in each case.

Take `CC(C)NCC(O)Cn1c(Cc2ccc(Cl)cc2Cl)cn(Cc2nc3ccc(F)nc3[nH]2)c1=O` (centres unmarked) [Compound 2294, 4-[(2,4-dichlorophenyl)methyl]-1-({5-fluoro-1H-imidazo[4,5-b]pyridin-2-yl}methyl)-3-{2-hydroxy-3-[(propan-2-yl)amino]propyl}-2,3-dihydro-1H-imidazol-2-one]: the EC50 worked out at 30.4 nM in assay [1] (Trypanosoma brucei) and 3330 nM in [3] (Trypanosoma cruzi). Besides, the MIC in assay [10] and in assay [6] was greater than 8 µg/mL throughout.

For the compound `CCn1c(Cc2c(Cl)cc(Cl)cc2OC)cn(Cc2nc3ccc(Cl)nc3[nH]2)c1=O` [Compound 2295], the EC50 in assay [1] (Trypanosoma brucei) was less than 0.91 nM; in assay [1], 0.71 nM; in assay [3] (Trypanosoma cruzi), 5.3 nM; in [3] it was 4.59 nM. Moreover, the MIC in [10] was 1.16 µg/mL (≈ 2.49 µM); in [6] (ATCC29213|MSSA), 0.124 µg/mL (≈ 0.266 µM).

For `CCn1c(C(=O)c2ccc(OC)cc2Cl)cn(Cc2nc3ccc(Cl)nc3[nH]2)c1=O` [Compound 2296, 1-({5-chloro-1H-imidazo[4,5-b]pyridin-2-yl}methyl)-4-(2-chloro-4-methoxybenzoyl)-3-ethyl-2,3-dihydro-1H-imidazol-2-one], the EC50 in assay [1] (Trypanosoma brucei) was less than 0.91 nM; in [1] it was 0.78 nM; in [3] (Trypanosoma cruzi), 5.26 nM; in assay [3], 7.44 nM; in assay [9], 62 nM. For the same compound, the MIC in assay [10] is 0.455 µg/mL (≈ 1.02 µM); in [6] it was 0.21 µg/mL (≈ 0.471 µM).

As to `CCn1c(C(O)c2ccc(OC)cc2Cl)cn(Cc2nc3ccc(Cl)nc3[nH]2)c1=O` (centres unmarked) [Compound 2297, 1-({5-chloro-1H-imidazo[4,5-b]pyridin-2-yl}methyl)-4-[(2-chloro-4-methoxyphenyl)(hydroxy)methyl]-3-ethyl-2,3-dihydro-1H-imidazol-2-one], the EC50 worked out at 7.12 nM in assay [1] (Trypanosoma brucei), 53.8 nM in assay [3] (Trypanosoma cruzi), 79.7 nM in assay [3] and 203 nM in assay [9]. The MIC in [10] was greater than 8 µg/mL; in assay [6], 2.98 µg/mL (≈ 6.65 µM).

The record behind these values is patent publication US11584744B2 (UNIVERSITY OF WASHINGTON, priority 2017, dated 2023).
